The results in this text go back to ChEMBL document CHEMBL1132869, “The first synthesis of clausenamine-A and cytotoxic activities of three biscarbazole analogues against cancer cells” (2000).

Holding throughout (settings): Homo sapiens
The test system of one test is SR. Put plainly: In vitro inhibitory activity against SR cancer cell lines. The test is classed as functional.
The subject of another test is UO-31. Description: In vitro inhibitory activity against UO-31 renal cancer cell lines. The test is classed as functional.
In the next test the test system is HL-60. Description: In vitro inhibitory activity against HL-60 cancer cell lines. The format is functional.
For another test, the system named is NCI-H23. Description: In vitro inhibitory activity against NIC-H23 lung cancer cell lines.
In a further test the test system is HT-29. Description: In vitro inhibitory activity against HT-29 colon cancer cell lines. The format is functional.
The next test has as its system K562. Put plainly: In vitro inhibitory activity against K-562 cancer cell lines. The format is functional.
In the next test the test system is A498. Description: In vitro inhibitory activity against A-498 […] cancer cell lines. The format is functional.
For a further test, the system named is MCF7. Description: In vitro inhibitory activity against MCF-7 breast cancer cell lines. The format is functional.
The next test deals with OVCAR-5. Put plainly: In vitro inhibitory activity against OVCAR-5 ovarian cancer cell lines. The test is classed as functional.
The subject of a further test is SK-MEL-5. Description: In vitro inhibitory activity against SK-MEL-5 melanoma cancer cell lines. The test is classed as functional.
The subject of the next test is SF-295. Put plainly: In vitro inhibitory activity against SF-295 […] cancer cell lines. The test is classed as functional.
The subject of the next test is CAKI-1. Description: In vitro inhibitory activity against CAKI-1 […] cancer cell lines. The test is classed as functional.
For the next test, the system named is RPMI-8226. Description: In vitro inhibitory activity against […] cancer cell lines. The format is functional.
For the next test, the system named is MDA-N. Description: In vitro inhibitory activity against MDA-N breast cancer cell lines. The format is functional.
For the next test, the system named is MDA-MB-435. Put plainly: In vitro inhibitory activity against MDA-MB-435 breast cancer cell lines. The format is functional.
The test system of the next test is HCT-15. Put plainly: In vitro inhibitory activity against HCT-15 colon cancer cell lines. The test is classed as functional.
A further test has as its system MOLT-4. Put plainly: In vitro inhibitory activity against MOLT-4 cancer cell lines. The format is functional.

`COc1ccc2[nH]c3c(O)c(-c4c(C)cc5c([nH]c6ccc(OC)cc65)c4O)c(C)cc3c2c1`: the GI50 in the test with SR was found to be 3.97 µM; in the test on UO-31 it was 3.78 µM; in the test with HL-60, 0.0321 µM; in the test with NCI-H23, 4.48 µM; with HT-29, 3.71 µM; in the test on K562, 4.04 µM. Further, the GI50 with A498 worked out at 4.78 µM; with MCF7, 4.49 µM; in the test on OVCAR-5, 3.82 µM; with SK-MEL-5, 4.34 µM; with SF-295, 5.11 µM; in the test on CAKI-1, 4.27 µM. The GI50 stood at 3.61 µM with RPMI-8226; 4.5 µM in the test with MDA-N; 4.34 µM in the test on MDA-MB-435; 4.2 µM with HCT-15; 3.23 µM in the test with MOLT-4.

Regarding `COc1cc(OC)c2[nH]c3c(O)c(-c4c(C)cc5c([nH]c6c(OC)cc(OC)cc65)c4O)c(C)cc3c2c1`, the GI50 amounted to 9.01 µM with SR; 6.84 µM with UO-31; 2.82 µM in the test with HL-60; 8.2 µM in the test with NCI-H23; 8.03 µM in the test with HT-29; 9.7 µM in the test on K562. Moreover, the GI50 with A498 was found to be 7.82 µM; in the test with MCF7 it was 8.68 µM; in the test on OVCAR-5, 9.03 µM; in the test with SK-MEL-5 it was 8.38 µM; in the test with SF-295, 10.2 µM; with CAKI-1 it was 9.89 µM. Besides, the GI50 was found to be 10.5 µM in the test with RPMI-8226; 8.83 µM with MDA-N; 12 µM with MDA-MB-435; 8.28 µM in the test on HCT-15; 8.59 µM in the test on MOLT-4.

`Cc1cc2c([nH]c3ccccc32)c(O)c1-c1c(C)cc2c([nH]c3ccccc32)c1O`: the GI50 in the test on SR came out at 3.16 µM; in the test on UO-31, 13 µM; with HL-60 it was 32.9 µM; in the test with NCI-H23, 12.4 µM; in the test on HT-29, 6.04 µM; with K562, 12.3 µM. In addition, the GI50 in the test on A498 stood at 15.9 µM; in the test on MCF7, 11.2 µM; in the test on OVCAR-5 it was 15 µM; with SK-MEL-5, 16.5 µM; with SF-295 it was 17.4 µM; in the test on CAKI-1, 14.7 µM. Besides, the 50% growth inhibitory concentration (GI50) in the test with RPMI-8226 stood at 3.85 µM; in the test on MDA-N, 14.7 µM; with MDA-MB-435 it was 15 µM; in the test with HCT-15 it was 10.1 µM; in the test on MOLT-4, 3.62 µM.
